This test deals with JFCR39 panel of 39 human tumor cell lines. The test is described as follows: JFCR39 panel growth inhibition, panel statistics. The class given is cell-based. As to conditions: Homo sapiens; JFCR39 panel; read-out: mean GI50 across all 39 cell lines. The method, then:
JFCR39 drug discovery system was used to measure the growth inhibitory activities and identify the target of KTC1101. The JFCR39 panel consists of 39 cell lines seeded in 96-well plates. After 48-h treatment with KTC1101, cell growth was measured using the sulforhodamine B assay. […] The deviation of log GI50 for each cell line from the average log GI50 across the JFCR39 panel was plotted as a fingerprint. MG-MID (mean of Log GI50 values) represents the average log GI50 for all 39 cell lines. The most sensitive and least sensitive cell lines were identified by calculating the difference in their log GI50 values (Range) and the difference between the most sensitive cell line and the average GI50 on the JFCR39 panel (Delta). The fingerprint of KTC1101 was compared with the fingerprints of reference compounds in the database. The Pearson correlation coefficient (r) was calculated (n = 39).

The text below walks through data of PMC10938783, “A novel pan-PI3K inhibitor KTC1101 synergizes with anti-PD-1 therapy by targeting tumor suppression and immune activation” (Molecular Cancer, 2024).

The term GI50 denotes the concentration that inhibits growth by half.

Take `COc1c(OCCCN2CCOCC2)ccc2c1N=C(NC(=O)c1cnc(N)nc1)N1CCN=C21` [Copanlisib, reference compound]: the 50% growth inhibitory concentration (GI50) was determined as 134 nM.
